In the NIST ThermoML archive (doi:10.1016/j.jct.2011.01.014):

Test: xn = mol fraction of the nth substance listed
Settings: 101 kPa, Liquid; for speed of sound: sound velocity cell; for mass density: Vibrating tube method

CC(=O)[O-].[NH3+]CCO [2-hydroxyethylammonium acetate] + O
Settings | mass density [kg/m3] | speed of sound [m/s]
305.65 K, x1 = 0.051 | – | 1689.8
305.65 K, x1 = 0.1019 | – | 1763.6
305.65 K, x1 = 0.1963 | – | 1817.3
305.65 K, x1 = 0.2894 | – | 1823.5
305.65 K, x1 = 0.3959 | – | 1811.5
305.65 K, x1 = 0.5016 | – | 1799.8
305.65 K, x1 = 0.5821 | – | 1797
305.65 K, x1 = 0.6837 | – | 1788.2
305.65 K, x1 = 0.7763 | – | 1786.6
305.65 K, x1 = 0.8761 | – | 1776.6
305.65 K, x1 = 0.9137 | – | 1778.1
305.65 K, x1 = 1 | – | 1773.4
308.15 K, x1 = 0.051 | 1047.04 | 1690.8
308.15 K, x1 = 0.1019 | 1076 | 1762.3
308.15 K, x1 = 0.1963 | 1106.1 | 1814
308.15 K, x1 = 0.2894 | 1120.43 | 1819.3
308.15 K, x1 = 0.3959 | 1129.69 | 1806.9
308.15 K, x1 = 0.5016 | 1134.77 | 1795
308.15 K, x1 = 0.5821 | 1137.3 | 1792.1
308.15 K, x1 = 0.6837 | 1139.14 | 1783.2
308.15 K, x1 = 0.7763 | 1140.95 | 1781.4
308.15 K, x1 = 0.8761 | 1142.23 | 1771.3
308.15 K, x1 = 0.9137 | 1142.59 | 1772.8
308.15 K, x1 = 1 | 1143.39 | 1767.9
310.65 K, x1 = 0.051 | 1045.86 | 1691.5
310.65 K, x1 = 0.1019 | 1074.78 | 1760.8
310.65 K, x1 = 0.1963 | 1104.76 | 1810.6
310.65 K, x1 = 0.2894 | 1119.06 | 1815.2
310.65 K, x1 = 0.3959 | 1128.3 | 1802.4
310.65 K, x1 = 0.5016 | 1133.38 | 1790.2
310.65 K, x1 = 0.5821 | 1135.91 | 1787.2
310.65 K, x1 = 0.6837 | 1137.76 | 1778.2
310.65 K, x1 = 0.7763 | 1139.58 | 1776.3
310.65 K, x1 = 0.8761 | 1140.87 | 1766
310.65 K, x1 = 0.9137 | 1141.2 | 1767.5
310.65 K, x1 = 1 | 1141.96 | 1762.5
313.15 K, x1 = 0.051 | 1044.65 | 1692
313.15 K, x1 = 0.1019 | 1073.54 | 1759.2
313.15 K, x1 = 0.1963 | 1103.42 | 1807.1
313.15 K, x1 = 0.2894 | 1117.69 | 1811.1
313.15 K, x1 = 0.3959 | 1126.9 | 1797.7
313.15 K, x1 = 0.5016 | 1131.98 | 1785.3
313.15 K, x1 = 0.5821 | 1134.53 | 1782.3
313.15 K, x1 = 0.6837 | 1136.37 | 1773.2
313.15 K, x1 = 0.7763 | 1138.21 | 1771.3
313.15 K, x1 = 0.8761 | 1139.5 | 1760.8
313.15 K, x1 = 0.9137 | 1139.84 | 1762.3
313.15 K, x1 = 1 | 1140.55 | 1757.2
315.15 K, x1 = 0.051 | 1043.45 | –
315.15 K, x1 = 0.1019 | 1072.29 | –
315.15 K, x1 = 0.1963 | 1102.07 | –
315.15 K, x1 = 0.2894 | 1116.31 | –
315.15 K, x1 = 0.3959 | 1125.5 | –
315.15 K, x1 = 0.5016 | 1130.58 | –
315.15 K, x1 = 0.5821 | 1133.13 | –
315.15 K, x1 = 0.6837 | 1134.98 | –
315.15 K, x1 = 0.7763 | 1136.83 | –
315.15 K, x1 = 0.8761 | 1138.14 | –
315.15 K, x1 = 0.9137 | 1138.48 | –
315.15 K, x1 = 1 | 1139.18 | –
315.65 K, x1 = 0.051 | – | 1692.3
315.65 K, x1 = 0.1019 | – | 1757.5
315.65 K, x1 = 0.1963 | – | 1803.5
315.65 K, x1 = 0.2894 | – | 1806.9
315.65 K, x1 = 0.3959 | – | 1793.1
315.65 K, x1 = 0.5016 | – | 1780.5
315.65 K, x1 = 0.5821 | – | 1777.4
315.65 K, x1 = 0.6837 | – | 1768.2
315.65 K, x1 = 0.7763 | – | 1766.2
315.65 K, x1 = 0.8761 | – | 1755.7
315.65 K, x1 = 0.9137 | – | 1757.1
315.65 K, x1 = 1 | – | 1751.9
318.15 K, x1 = 0.051 | 1042.25 | 1692.3
318.15 K, x1 = 0.1019 | 1071.02 | 1755.5
318.15 K, x1 = 0.1963 | 1100.71 | 1799.9
318.15 K, x1 = 0.2894 | 1114.92 | 1802.6
318.15 K, x1 = 0.3959 | 1124.1 | 1788.4
318.15 K, x1 = 0.5016 | 1129.18 | 1775.6
318.15 K, x1 = 0.5821 | 1131.74 | 1772.5
318.15 K, x1 = 0.6837 | 1133.59 | 1763.2
318.15 K, x1 = 0.7763 | 1135.45 | 1761.2
318.15 K, x1 = 0.8761 | 1136.76 | 1750.5
318.15 K, x1 = 0.9137 | 1137.11 | 1751.9
318.15 K, x1 = 1 | 1137.82 | 1746.5
320.65 K, x1 = 0.051 | 1041.08 | 1692.2
320.65 K, x1 = 0.1019 | 1069.74 | 1753.5
320.65 K, x1 = 0.1963 | 1099.34 | 1796.1
320.65 K, x1 = 0.2894 | 1113.53 | 1798.2
320.65 K, x1 = 0.3959 | 1122.69 | 1783.6
320.65 K, x1 = 0.5016 | 1127.77 | 1770.7
320.65 K, x1 = 0.5821 | 1130.35 | 1767.6
320.65 K, x1 = 0.6837 | 1132.19 | 1758.2
320.65 K, x1 = 0.7763 | 1134.06 | 1756.1
320.65 K, x1 = 0.8761 | 1135.38 | 1745.3
320.65 K, x1 = 0.9137 | 1135.73 | 1746.7
320.65 K, x1 = 1 | 1136.45 | 1741.3
323.15 K, x1 = 0.051 | 1040.15 | 1691.8
323.15 K, x1 = 0.1019 | 1068.47 | 1751.2
323.15 K, x1 = 0.1963 | 1097.97 | 1792.3
323.15 K, x1 = 0.2894 | 1112.14 | 1793.9
323.15 K, x1 = 0.3959 | 1121.29 | 1778.9
323.15 K, x1 = 0.5016 | 1126.36 | 1765.9
323.15 K, x1 = 0.5821 | 1128.95 | 1762.8
323.15 K, x1 = 0.6837 | 1130.79 | 1753.3
323.15 K, x1 = 0.7763 | 1132.67 | 1751
323.15 K, x1 = 0.8761 | 1134 | 1740.2
323.15 K, x1 = 0.9137 | 1134.36 | 1741.5
323.15 K, x1 = 1 | 1135.08 | 1736
